Data reported in US6610763B1, “Polymer composition, the production and further processing thereof into receptacles” (priority 1998, dated 2003).

What was measured:
[1] = test system: Klebsiella pneumoni (ATCC 4352) and Staphylococcus aureus (ATCC 6538); test: inhibiting zone test on agar plates; format: cell-based; conditions: various concentrations on 6-mm filter disks, approximately 16 hours of incubation on agar plates, FIG. 1
Procedure: For purposes of determining the concentration by means of the inhibiting zone tests, Klebsiella pneumoni (ATCC 4352) and Staphylococcus aureus (ATCC 6538) were bred on casein soy-meal broth (CM, oxoid), then plated out onto casein-peptone soy-meal agar (CM 131, oxoid) and incubated at 37° C. [98.6° F.]. Up to 50 μl of Irgasan DP 300 were applied onto 6-mm filter disks.
For this purpose, first of all, a test was drawn up that makes it possible to quantitatively detect the anti-microbial effect of test specimens containing 0.2% Irgasan DP 300 and Irgasan DP 300 as a pure substance. In order to examine the migration of the additive and the sensitivity of various test germs, an inhibiting zone test was conducted: test specimens were incubated on agar plates that had been inoculated with these germs. As indicators, two microorganisms were employed whose minimum inhibiting concentration (MIC) with respect to Irgasan DP 300 was between 0.01 ppm and 0.3 ppm, according to information provided by the manufacturer. The kinetics of the release of active ingredient into an aqueous solution were examined by incubating test specimens in a defined volume and by subsequently evaluating them with a spectroscope as well as in the inhibiting zone test. Both methods were calibrated by means of parallel batches with the pure substance. […]

[2] = saturation concentration in water; format: physicochemical; conditions: room temperature
[3] = in vivo; cited from earlier work

For `Oc1cc(Cl)ccc1Oc1ccc(Cl)cc1Cl` [Irgasan DP 300, 2,4,4′-trichloro-2′-hydroxydiphenyl ether], the “microbial growth in inhibiting zones” value [1] is given as “do not exhibit any microbial growth”, the “saturation concentration in water” value [2] is given as “about 10 ppm” and the “accumulation in the body” value [3] is given as “does not accumulate in the body”. The “toxicity in view of LD50 value” [3] was “practically non-toxic”.
